# Where two headings read alike, the source gives them in different places.
# Key:
# MALME-3M = assay: NCI 60 cell line panel screen (SRB); format: cell-based, human; conditions: MALME-3M (Melanoma)
# HOP-62 = assay: NCI 60 cell line panel screen (SRB); format: cell-based, human
# NCI-H460 = assay: NCI 60 cell line panel screen (SRB); format: cell-based, human
# K-562 = assay: NCI 60 cell line panel screen (SRB); format: cell-based, human
# EKVX = assay: NCI 60 cell line panel screen (SRB); format: cell-based, human
# SK-MEL-28 = assay: NCI 60 cell line panel screen (SRB); format: cell-based, human
# 786-0 = assay: NCI 60 cell line panel screen (SRB); format: cell-based, human
# HCT-15 = assay: NCI 60 cell line panel screen (SRB); format: cell-based, human
# HCT-116 = assay: NCI 60 cell line panel screen (SRB); format: cell-based, human
# SNB-75 = assay: NCI 60 cell line panel screen (SRB); format: cell-based, human
# A549/ATCC = assay: NCI 60 cell line panel screen (SRB); format: cell-based, human
# RPMI-8226 = assay: NCI 60 cell line panel screen (SRB); format: cell-based, human
# COLO 205 = assay: NCI 60 cell line panel screen (SRB); format: cell-based, human
# MCF7 = assay: NCI 60 cell line panel screen (SRB); format: cell-based, human
# [1] = system: chloroquine-sensitive P. falciparum (NF54); assay: Antimalarial activity in vitro, [3H]hypoxanthine incorporation; format: cell-based; conditions: Plasmodium falciparum, read-out: IC50
# MDA-MB231/ATCC = assay: NCI 60 cell line panel screen (SRB); format: cell-based, human
# HT29 = assay: NCI 60 cell line panel screen (SRB); format: cell-based, human
# M14 = assay: NCI 60 cell line panel screen (SRB); format: cell-based, human
# ACHN = assay: NCI 60 cell line panel screen (SRB); format: cell-based, human
# UACC-257 = assay: NCI 60 cell line panel screen (SRB); format: cell-based, human
compound,measurement,setting,value
C[C@@H]1CC[C@H]2[C@@H](C)C(=O)O[C@@H]3O[C@]4(C)CC[C@@H]1[C@]32OO4 [Artemisinin],Log10LC50,MALME-3M; LC50: PG=−50,>−4.00 log10M
same,Log10TGI50,MALME-3M; TGI: PG=0,−4.06 log10M
same,Log10LC50,"HOP-62; HOP-62 (Non-Small Cell Lung Cancer), LC50: PG=−50",>−4.00 log10M
same,Log10TGI50,"HOP-62; HOP-62 (Non-Small Cell Lung Cancer), TGI: PG=0",>−4.00 log10M
same,Log10GI50,"HOP-62; Non-Small Cell Lung Cancer, HOP-62",>−4.00
same,Log10LC50,"NCI-H460; NCI-H460 (Non-Small Cell Lung Cancer), LC50: PG=−50",>−4.00 log10M
same,Log10TGI50,"NCI-H460; NCI-H460 (Non-Small Cell Lung Cancer), TGI: PG=0",>−4.00 log10M
same,Log10GI50,"NCI-H460; Non-Small Cell Lung Cancer, NCI-H460",>−4.00
same,Log10LC50,"K-562; K-562 (Leukemia), LC50: PG=−50",>−4.00 log10M
same,Log10TGI50,"K-562; K-562 (Leukemia), TGI: PG=0",>−4.00 log10M
same,Log10GI50,"K-562; Leukemia, K-562",−4.33
same,Log10LC50,"EKVX; EKVX (Non-Small Cell Lung Cancer), LC50: PG=−50",>−4.00 log10M
same,Log10TGI50,"EKVX; EKVX (Non-Small Cell Lung Cancer), TGI: PG=0",>−4.00 log10M
same,Log10GI50,"EKVX; Non-Small Cell Lung Cancer, EKVX",>−4.00
same,Log10GI50,"SK-MEL-28; Melanoma, SK-MEL-28",>−4.00
same,Log10LC50,"SK-MEL-28; SK-MEL-28 (Melanoma), LC50: PG=−50",>−4.00 log10M
same,Log10TGI50,"SK-MEL-28; SK-MEL-28 (Melanoma), TGI: PG=0",>−4.00 log10M
same,Log10LC50,"786-0; 786-0 (Renal Cancer), LC50: PG=−50",>−4.00 log10M
same,Log10TGI50,"786-0; 786-0 (Renal Cancer), TGI: PG=0",>−4.00 log10M
same,Log10GI50,"786-0; Renal Cancer, 786-0",>−4.00
same,Log10GI50,"HCT-15; Colon Cancer, HCT-15",>−4.00
same,Log10LC50,"HCT-15; HCT-15 (Colon Cancer), LC50: PG=−50",>−4.00 log10M
same,Log10TGI50,"HCT-15; HCT-15 (Colon Cancer), TGI: PG=0",>−4.00 log10M
same,Log10GI50,"HCT-116; Colon Cancer, HCT-116",−4.18
same,Log10LC50,"HCT-116; HCT-116 (Colon Cancer), LC50: PG=−50",>−4.00 log10M
same,Log10TGI50,"HCT-116; HCT-116 (Colon Cancer), TGI: PG=0",>−4.00 log10M
same,Log10GI50,"SNB-75; CNS Cancer, SNB-75",>−4.00
same,Log10LC50,"SNB-75; SNB-75 (CNS Cancer), LC50: PG=−50",>−4.00 log10M
same,Log10TGI50,"SNB-75; SNB-75 (CNS Cancer), TGI: PG=0",>−4.00 log10M
same,Log10LC50,"A549/ATCC; A549/ATCC (Non-Small Cell Lung Cancer), LC50: PG=−50",>−4.00 log10M
same,Log10TGI50,"A549/ATCC; A549/ATCC (Non-Small Cell Lung Cancer), TGI: PG=0",>−4.00 log10M
same,Log10GI50,"A549/ATCC; Non-Small Cell Lung Cancer, A549/ATCC",−4.17
same,Log10GI50,"RPMI-8226; Leukemia, RPMI-8226",>−4.00
same,Log10LC50,"RPMI-8226; RPMI-8226 (Leukemia), LC50: PG=−50",>−4.00 log10M
same,Log10TGI50,"RPMI-8226; RPMI-8226 (Leukemia), TGI: PG=0",>−4.00 log10M
same,Log10LC50,"COLO 205; COLO 205 (Colon Cancer), LC50: PG=−50",>−4.00 log10M
same,Log10TGI50,"COLO 205; COLO 205 (Colon Cancer), TGI: PG=0",>−4.00 log10M
same,Log10GI50,"COLO 205; Colon Cancer, COLO 205",>−4.00
same,Log10GI50,"MCF7; Breast Cancer, MCF7",>−4.00
same,Log10LC50,"MCF7; MCF7 (Breast Cancer), LC50: PG=−50",>−4.00 log10M
same,Log10TGI50,"MCF7; MCF7 (Breast Cancer), TGI: PG=0",>−4.00 log10M
same,IC50,"[1]; NF54, Table I, NF54 strain",9.2 ± 1.7 nM
same,IC50,"[1]; NF54, running text b206, artemisinin",7.7 nM
same,Log10GI50,"MDA-MB231/ATCC; Breast Cancer, MDA-MB231/ATCC",−4.20
same,Log10LC50,"MDA-MB231/ATCC; MDA-MB231/ATCC (Breast Cancer), LC50: PG=−50",>−4.00 log10M
same,Log10TGI50,"MDA-MB231/ATCC; MDA-MB231/ATCC (Breast Cancer), TGI: PG=0",>−4.00 log10M
same,Log10GI50,"HT29; Colon Cancer, HT29",>−4.00
same,Log10LC50,"HT29; HT29 (Colon Cancer), LC50: PG=−50",>−4.00 log10M
same,Log10TGI50,"HT29; HT29 (Colon Cancer), TGI: PG=0",>−4.00 log10M
same,Log10LC50,"M14; M14 (Melanoma), LC50: PG=−50",>−4.00 log10M
same,Log10TGI50,"M14; M-14 (Melanoma), TGI: PG=0",>−4.00 log10M
same,Log10LC50,"ACHN; ACHN (Renal Cancer), LC50: PG=−50",>−4.00 log10M
same,Log10TGI50,"ACHN; ACHN (Renal Cancer), TGI: PG=0",>−4.00 log10M
same,Log10GI50,"ACHN; Renal Cancer, ACHN",>−4.00
same,Log10GI50,"UACC-257; Melanoma, UACC-257",>−4.00
same,Log10LC50,"UACC-257; UACC-257 (Melanoma), LC50: PG=−50",>−4.00 log10M
same,Log10TGI50,"UACC-257; UACC-257 (Melanoma), TGI: PG=0",>−4.00 log10M
